Measurements published in US5430057A, “Parenteral busulfan for treatment of malignant disease” (priority 1993, dated 1995).
Values after ≈ are worked out from the molar mass of the structure shown. “Also recorded” adds a separate entry of the source.

Tests used:
erythrocytes = conditions: cited from earlier work
[1] = Equilibrium solubility studies; format: physicochemical; conditions: anhydrous dma, organic solvent or mixture
Protocol: An excess amount of busulfan was added to each solution and the mixtures were placed on a rotating mixer (Tube Rotator™, Scientific Equipment Products, Baltimore, Md.). […] For the DMA/PEG-400 aqueous vehicle, a slightly modified approach had to be taken, since DMA readily dissolved the ACRO LC 25 filter. After dissolving the busulfan in DMA, the busulfan-DMA solution was mixed with 40% PEG-400/40% water and filtered through a 0.45 μm silver filter (Nuclepore Corp., Pleasanton, Calif.) fitted to a syringe assembly. After derivatization with DDTC, the busulfan concentration was determined by HPLC as above.

[2] = Stability of busulfan formulations on storage / after mixing; format: physicochemical
Protocol: Stability of the Various Busulfan Formulations. The physical and chemical stabilities of the various parenteral busulfan formulations were examined as follows: First, busulfan was dissolved at a concentration of 25 mg/ml in DMA only ("stock solution") and incubated at 4° C. at 22° C. and at 40°C. Starting at time zero, then weekly up to 10 weeks, samples were withdrawn and analyzed for busulfan concentration by HPLC. Second, the busulfan-DMA was diluted with PEG-400/water to give final concentrations of DMA:PEG-400:water of 20:40:40 and final busulfan concentrations of 2-10 mg/ml. These formulations were subsequently analyzed by HPLC immediately after mixing and then hourly for eight hours. Third, busulfan formulation mixtures were diluted in normal saline to a final busulfan concentration of 1 mg/ml. The preparations were then introduced into infusion bags (Viaflex™ Baxter Healthcare Corp Deerfield, Id.), and allowed to run through a parenteral infusion set at a rate of 1 ml/min. Samples were collected at 0, 0.5, 1.0, 2.0, 5.0, 7.0, 9.0, and 12 hours and analyzed for busulfan by HPLC as above.
The drug was first dissolved in DMA at 25 mg/ml. Different aliquots were stored at 4° C., at 22° C., and at 40°C. From time 0 and then weekly, samples were analyzed for busulfan drug degradation over at least 15 weeks of observation. […] The stability of busulfan in the complete 20% DMA/40% PEG-400/40% water was also studied for the following different busulfan concentrations, 2, 3, 5, 8, and 10 mg/ml. At 2 and 3 mg/ml the busulfan was stable for the duration of the 8 hour observation period in this solvent system.

human erythrocytes = assay: Hemolysis studies; format: cell-based; conditions: in words
Protocol: The procedure of Reed and Yalkowsky was employed for the studies of hemolytic potential of the different preparations, and the LD50 values of the various formulations were evaluated (Reed et al., 1985).
Variable amounts of whole blood (citrated) were added to 0.05 ml of the drug formulations in ratios of 1:1 (v/v), 1:3, 1:5, 1:7, and 1:9. The mixtures were vortexed for 10 seconds and then incubated for 2 minutes at 25°C. Five ml normal saline was then added to this blend to quench further lysis of the erythrocytes by rendering the preparation nearly isotonic. The mixture was again vortexed for 10 seconds and centrifuged for 5 minutes at 3,000 r.p.m. (Beckman Model TJ-6 Centrifuge, Beckman Instruments Inc., Palo Alto, Calif.). The supernatant was carefully aspirated and discarded. The packed erythrocytes were washed once more at room temperature with one volume of normal saline. After centrifugation, the supernatant was again carefully aspirated and discarded. […] The absorbance of the supernatant was subsequently measured at 540 nm after a 1:3 dilution with distilled water° Normal saline was assayed in parallel as a standard. The fraction of […] was defined as the absorbance reading of the respective drug formulation divided by that of the saline standards (Reed et al., 1985).
The hemolytic potential of the various busulfan formulations was evaluated. […]

[3] = i.p., cited from earlier work
[4] = Solubility of busulfan in various solvent systems (HPLC); format: physicochemical; conditions: acetone, organic solvent or mixture
Protocol: A known amount of busulfan was equilibrated in the solvent system at 20°C. for predetermined periods of time. An aliquot was then removed and subjected to HPLC assay after an appropriate dilution for determining busulfan concentration and stability.
The derivatized product was separated from the reaction mixture using Sep-Pak™ C 18 solid phase extraction vials (Waters Chromatography Systems Inc., Millford, Mass.).

[5] = Plasma pharmacokinetics of busulfan, oral tablet, oral solution and i.v. solution; format: in vivo, Sprague-Dawley rats; conditions: in words
From the text: The present example provides the development of an efficient technique for extraction of busulfan from blood plasma, adaptation of the HPLC assay for quantitation of busulfan in the plasma extract, and studies of the in vivo plasma pharmacokinetics of busulfan when administered orally as the commercially available tablet, as an oral solution in a vehicle of 40% PEG-400, and as an intravenous injection when dissolved in a vehicle of 40% PEG-400. A comparison of the plasma pharmacokinetics of busulfan in the rat is also given after i.v. busulfan administration. The drug was dissolved at 3 mg/ml in either acetone or DMSO or the complete 20% DMA/40% PEG-400 aqueous solvent.
Rat plasma (0.2 ml) was spiked with varying concentrations of busulfan (from a stock solution in DMA), to give final drug concentrations of 0.15-3.0 μg/ml. The internal standard, 20 μl, (CGA-112913; in methanol, 20 μg/ml) was then added to the drug-plasma mixtures. After vortexing for 10 seconds, the drug and internal standard were precipitated from the plasma proteins with 0.2 ml acetonitrile with subsequent vortexing for 30 seconds. The busulfan and internal standard were then extracted using 2 ml of ethyl acetate and vortexed for 1 minute. The solutions were centrifuged for 10 minutes and 1 ml of the ethyl acetate layer was evaporated to dryness under compressed air. The busulfan and internal standard were then dissolved in 0.5 ml of distilled water and derivatized with 0.2 ml of an 8.2% (w/v) solution of diethyldithiocarbamic acid sodium and vortexed for 30 seconds.
The busulfan derivative, DDCB (Diethyldithiocarbamoyl butane), was subjected to solid phase extraction with Sep-Pak LC™ cartridges (Millipore Corporation, Bedford, Ill.) under vacuum. The cartridges were conditioned with three 1-ml washes of methanol followed by two 1-ml washes with distilled water. The derivatized solutions were then passed through the cartridges and the cartridges washed twice with 1 ml 50% methanol in distilled water. The DDCB and the internal standard were eluted from the columns using 250-μ1 methanol twice, followed by two washes of 0.5-ml of ethyl acetate. […]

[6] = i.p., 2.5% carboxymethylcellulose in water; cited from earlier work
[7] = cited from earlier work
[8] = room temperature; cited from earlier work
[9] = test system: human KBM-3 myeloid leukemia cells; assay: In vitro cytotoxicity, MTT assay; format: cell-based; conditions: for cells killed: 24 hours, 37° C.
Protocol: In vitro Cytotoxicity of Busulfan in the DMA/PEG-400 Vehicle. Human leukemic KBM-3 cells (Anderson, et al., 1992), were incubated for 24 hours in the complete vehicle without the addition of busulfan at different concentrations (0.5%, 1.0%, 2.0%, 3.0% and […], v/v), to assay the cytotoxic properties of the 20% DMA/40% PEG-400 aqueous vehicle by itself (negative controls), or with the addition of busulfan. In parallel, cells in Iscove's modified Dulbecco medium (GIBCO, Grand Island, New York, N.Y.), supplemented with 10% fetal bovine serum, were incubated with busulfan (at 25 μg/ml and 50 μg/ml), in the 20% DMA/40% PEG-400 aqueous solvent (the resulting vehicle concentrations were 1.0 and 2.0% (v/v), respectively), or with busulfan dissolved in a small volume (≤1%, v/v) of acetone (positive controls). After 24 hours, 25 μl of a 5 mg/ml solution of MTT (3, [4,5-dimethylthiazol-2-yl]2,5-diphenyltetrazoliumbromide, obtained from Sigma Chemicals, St. Louis, MO), was added to each sample, and after an additional 2 hours of incubation at 37° C., 100 μl of extraction buffer was added (extraction buffer: 20% (w/v) SDS dissolved to saturation at 37° C. in a solution of equal parts of dimethylformamide and deionized water; the pH was adjusted to 4.7 by the use of acetic acid and 1 N HCL as described (Hansen et al., 1989). After over night incubation at 37° C., the optical densities at 570 nm were measured using a Titer-Tech 96-well multi-scanner, using the extraction buffer as the blank. The cytotoxicity was determined as the difference between the samples as above and the reactivity of cells incubated in PBS alone. All determinations were performed in triplicate.
To study the cytotoxic activity of busulfan in the 20% DMA/40% PEG-400 aqueous vehicle, human KBM-3 myeloid leukemia cells (Andersson et al., 1992), were exposed to either the complete vehicle at various concentrations without or with the addition of busulfan for 24 hours at 37° C. The cytotoxicity was assayed with the MTT assay (Hansen et al., 1989). […]

Question: Which “hemolysis LD50” value (erythrocytes; Yoshida et al., 1988) does the source give for cyclodextrins here?
Answer: about 2 % (w/v)

Question: With `CS(=O)(=O)OCCCCOS(C)(=O)=O` [busulfan, 1,4-bis-(methanesulfonoxyl)butane] as the compound, how does the solubility [1] read?
Answer: 75 mg/mL (≈ 304 mM)

Question: What about the onset of degradation ([2]; 25 mg/ml in DMA, 40° C.) of the same compound?
Answer: around 3 weeks

Question: And the “degradation at 15 weeks” value ([2]; 25 mg/ml in DMA, 40° C., 15 weeks, 151200 min)?
Answer: about 50%

Question: And the “stability in DMSO” value ([2]; DMSO, in words)?
Answer: rapidly degrades busulfan

Question: And the “contribution of busulfan to hemolysis” value (human erythrocytes)?
Answer: did not add significantly to the overall hemolytic effect; also recorded: insignificant

Question: What about the “hemolysis by busulfan itself” value (erythrocytes; Bishop et al., 1986) of the same compound?
Answer: shown to cause hemolysis

Question: And the platelet dysfunction ([3]; in polyethyleneglycol, 60 mg/kg)?
Answer: induce platelet dysfunction

Question: What about the “toxicity of intraperitoneal administration” value [3] of the same compound?
Answer: very toxic and causes significant local tissue damage

Question: What about the solubility [4] of the same compound?
Answer: 25 mg/mL (≈ 101 mM)

Question: What about the “absorption, non-fasting vs fasting animals” value ([5]; oral) of the same compound?
Answer: non-fasting animals seem to absorb more drug than fasting subjects

Question: What about the “bioavailability / plasma concentrations vs oral preparations” value ([5]; parenteral vs oral) of the same compound?
Answer: higher after parenteral administration than after oral dosing

Question: What about the “AUC, parenteral vs standard tablet in non-fasting animals” value ([5]; ratio) of the same compound?
Answer: about five times higher

Question: What about the “peak plasma concentration, parenteral vs standard tablet in non-fasting animals” value ([5]; ratio) of the same compound?
Answer: approximately ten times higher

Question: And the “local toxicity of intraperitoneal injection” value [6]?
Answer: causes significant local tissue damage

Question: What about the liver toxicity ([7]; oral, high dose combinations) of the same compound?
Answer: veno-occlusive disease (VOD) of the liver, leading to fatal liver failure

Question: And the “neurological and gastrointestinal side effects” value ([7]; oral, high dose)?
Answer: grand mal seizures and severe nausea and vomiting

Question: What about the myelosuppression ([7]; prolonged administration) of the same compound?
Answer: occasionally severe, sometimes even irreversible myelosuppression

Question: What about the solubility in water [8] of the same compound?
Answer: 0.025 mg/mL (≈ 0.101 mM)

Question: And the “cytotoxic activity in vehicle” value ([9]; 20% DMA/40% PEG-400 aqueous vehicle vs acetone, in words)?
Answer: retained its cytotoxic activity

Question: And the cells killed ([9]; busulfan 25 μg/ml in 20% DMA/40% PEG-400 aqueous vehicle)?
Answer: about 50%

Question: What about the cells killed ([9]; busulfan 50 μg/ml in 20% DMA/40% PEG-400 aqueous vehicle) of the same compound?
Answer: approximately 80%
